Measured values published in patent publication US20260209260A1, “VECTORIZED NHC IRIDIUM(III) COMPLEXES AND USE THEREOF IN PHOTODYNAMIC THERAPY AND/OR DIAGNOSTIC” (CENTRE NATIONAL DE LA RECHERCHE SCIENTIFIQUE, priority 2022, published 2026).
Like-named read-outs stand apart in the source and are kept apart here.

Columns and labels:
Type in all cases: cell-based, Human
MCF7 breast cancer cells = experiment: Cell viability assay (MTT), dark and blue light; settings: for Photosensitizing index (PI) MCF7: dark vs blue light 458 nm
Outline: (§1)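 Readout after 72 h: MTT reduction at 570 nm. Light condition: 8 h dark loading, 10 min irradiation at 458 nm (LEDs, 9.6 W), dark to 72 h; control condition kept dark for the full 72 h.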

[1] = test system: Scaber bladder cancer cells; experiment: Cell viability assay (MTT), dark and blue light; settings: for Photosensitizing index (PI) Scaber: dark vs blue light 458 nm
Outline: as §1

Hela cervix cancer cells = experiment: Cell viability assay (MTT), dark and blue light; settings: for Photosensitizing index (PI) HeLa: dark vs blue light 458 nm
Outline: as §1

[2] = test system: cancer cells (all tumor cell lines tested); experiment: Cell viability assay (MTT), summary over the cancer cell lines tested; settings: for PI values, mean over cancer cells / PI values, median over cancer cells: dark vs blue light 458 nm
Protocol: Cells were grown in humidified incubators at 37° C. in 5% CO2. Murine MC3T3 osteoblast and NIH-3T3 fibroblast cells-used as non-tumor cell models-were cultured in a-MEM medium and DMEM medium supplemented with 10% fetal bovine serum (FBS) and 1% Penicillin/Streptomycin (P/S) antibiotics, respectively. Human T24 bladder, MGHU3 bladder, Scaber bladder, A549 lung, MCF7 breast, MiaPaCa2 pancreas cancer cells were cultured in DMEM medium supplemented with 10% FBS and 1% P/S antibiotics. […] Human Hela cervix and HepG2 liver cancer cells were cultured EMEM medium supplemented with 10% FBS and 1% P/S antibiotics.
MTT reagent (3-(4,5-dimethylthiazol-2-yl)-2,5-diphenyltetrazolium bromide) was used to determine cell death as originally described by Mosmann. Briefly, cells were seeded from 5,000 to 10,000 cells/well in 24-well plates (1 mL) depending on the cell type and allowed to attach overnight. The complexes were prepared in DMSO. The concentration of the complexes was calculated based on the elemental composition of the complexes determined by the elemental analyses. All cell viability experiments were carried out with a fixed concentration of 0.1% (v/v) DMSO. After 72 h of treatment, cells were incubated at 37° C. and 5% CO2 with 25 μL of MTT solution (5 mg/ml; Sigma-Aldrich) in 24-well plates for 3 to 4 h. After solubilization with 500 μL of DMSO, formazan was quantified spectrophotometrically with a microplate reader at 570 nm absorbance (ClarioSTAR, BMG LabTech). […] All the results were calculated from data obtained in at least three independent experiments performed in triplicate.
Two sets of experiments were conducted in parallel for each complex to be studied:
1. The cells were incubated with the different complexes (in the dark) for 72 h.
2. The cells were incubated for 8 h with the different complexes (in the dark), then irradiated for 10 min, followed by an incubation in the dark up to 72 h.

A549 lung cancer cells = experiment: Cell viability assay (MTT), dark and blue light; settings: for SI (vs NIH-3T3) A549 Blue: blue light 458 nm; for Photosensitizing index (PI) A549: dark vs blue light 458 nm
Outline: (§2)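 Viability determined by MTT assay (A570) after 72 h treatment in 0.1% DMSO, with or without a 10 min irradiation at 8 h. Data from at least three independent experiments run in triplicate.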

T24 bladder cancer cells = experiment: Cell viability assay (MTT), dark and blue light; settings: for Photosensitizing index (PI) T24: dark vs blue light 458 nm
Outline: as §2

[3] = test system: 22rV1 prostate cancer cells (PSMA-positive); experiment: Cell viability assay (MTT), dark and blue light; settings: for Photosensitizing index (PI): 22Rv1, dark vs blue light
Outline: (§3)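 Absorbance of MTT formazan at 570 nm gives viability after 72 h exposure to the complexes in 0.1% (v/v) DMSO. Irradiated wells got 10 min of 458 nm light after 8 h of dark incubation.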

[4] = test system: PC-3 prostate cancer cells (PSMA-negative); experiment: Cell viability assay (MTT), dark and blue light; settings: for Photosensitizing index (PI): PC3, dark vs blue light; for SI (vs MC3T3) PC-3 Blue: blue light 458 nm
Outline: as §3

[5] = test system: C4-2B prostate cancer cells (PSMA-positive); experiment: Cell viability assay (MTT), dark and blue light; settings: for Photosensitizing index (PI): dark vs blue light
Outline: as §3

[6] = 8 h in the dark, blue light 458 nm 10 min, then dark up to 72 h, read-out: GI50 MCF7 Blue
[7] = in the dark, 72 h, read-out: GI50 MCF7 Dark
[8] = 8 h in the dark, blue light 458 nm 10 min, then dark up to 72 h, read-out: GI50 Scaber Blue
[9] = in the dark, 72 h, read-out: GI50 Scaber Dark
[10] = 8 h in the dark, blue light 458 nm 10 min, then dark up to 72 h, read-out: GI50 HeLa Blue
[11] = in the dark, 72 h, read-out: GI50 HeLa Dark
[12] = 8 h in the dark, blue light 458 nm 10 min, then dark up to 72 h, read-out: GI50 A549 Blue
[13] = in the dark, 72 h, read-out: GI50 A549 Dark
[14] = 8 h in the dark, blue light 458 nm 10 min, then dark up to 72 h, read-out: GI50 T24 Blue
[15] = in the dark, 72 h, read-out: GI50 T24 Dark
[16] = 22Rv1, blue light, read-out: GI50
[17] = 8 h in the dark, blue light 458 nm 10 min, then dark up to 72 h, read-out: GI50 22Rv1 Blue
[18] = in the dark, 72 h, read-out: GI50 22Rv1 Dark
[19] = PC3, blue light, read-out: GI50
[20] = in the dark, 72 h, read-out: GI50 PC-3 Dark
[21] = 8 h in the dark, blue light 458 nm 10 min, then dark up to 72 h, read-out: GI50 C4-2b Blue
[22] = C4-2b, blue light, read-out: GI50
[23] = in the dark, 72 h, read-out: GI50 C4-2b Dark

COC(=O)c1ccc2[n+](c1)[Ir-3]13([c]4ccccc4-2)([c]2ccccc2-c2ccc(C(=O)OC)c[n+]21)[c]1n(CCCNC(=O)CCCC[C@@H]2SC[C@@H]4NC(=O)N[C@@H]42)cc[n+]1-c1cccc[n+]13.F[P-](F)(F)(F)(F)F [I-e]
GI50 (MCF7 breast cancer cells; [6]): 12.2 µM | SI (vs NIH-3T3) MCF7 Blue (MCF7 breast cancer cells; blue light 458 nm): 11.1 | SI (vs MC3T3) MCF7 Dark (MCF7 breast cancer cells; dark): 0.4 | SI (vs NIH-3T3) MCF7 Dark (MCF7 breast cancer cells; dark): >1.7 | Photosensitizing index (PI) MCF7 (MCF7 breast cancer cells): 11.9 | GI50 (MCF7 breast cancer cells; [7]): 145 µM | GI50 [1, 8]: 14.7 µM | SI (vs MC3T3) Scaber Dark ([1]; dark): <1 | SI (vs NIH-3T3) Scaber Dark ([1]; dark): >2.5 | Photosensitizing index (PI) Scaber [1]: >6.8 | GI50 [1, 9]: > 100 µM | GI50 (Hela cervix cancer cells; [10]): 59 µM | SI (vs MC3T3) HeLa Blue (Hela cervix cancer cells; blue light 458 nm): 0.7 | SI (vs MC3T3) HeLa Dark (Hela cervix cancer cells; dark): 0.3 | SI (vs NIH-3T3) HeLa Dark (Hela cervix cancer cells; dark): >1.1 | Photosensitizing index (PI) HeLa (Hela cervix cancer cells): 3.7 | GI50 (Hela cervix cancer cells; [11]): 221 µM | PI values, mean over cancer cells [2]: 8.4 fold | PI values, median over cancer cells [2]: 6.2 fold | GI50 (A549 lung cancer cells; [12]): 21.6 µM | SI (vs NIH-3T3) A549 Blue (A549 lung cancer cells): 6.3 | SI (vs NIH-3T3) A549 Dark (A549 lung cancer cells; dark): >2.3 | Photosensitizing index (PI) A549 (A549 lung cancer cells): 5.0 | GI50 (A549 lung cancer cells; [13]): 107 µM | GI50 (T24 bladder cancer cells; [14]): 5.6 µM | Photosensitizing index (PI) T24 (T24 bladder cancer cells): 17.2 | GI50 (T24 bladder cancer cells; [15]): 96 µM

F[P-](F)(F)(F)(F)F.O=C(CCCC[C@@H]1SC[C@@H]2NC(=O)N[C@@H]21)NCCCn1cc[n+]2[c]1[Ir-3]13([c]4ccccc4-c4ccc5ccccc5[n+]41)([c]1ccccc1-c1ccc4ccccc4[n+]13)[n+]1ccccc1-2 [I-g]
GI50 (MCF7 breast cancer cells; [6]): 2.2 µM | SI (vs MC3T3) MCF7 Blue (MCF7 breast cancer cells; blue light 458 nm): 14.3 | SI (vs NIH-3T3) MCF7 Blue (MCF7 breast cancer cells; blue light 458 nm): 28.0 | SI (vs MC3T3) MCF7 Dark (MCF7 breast cancer cells; dark): 4.0 | Photosensitizing index (PI) MCF7 (MCF7 breast cancer cells): 6.3 | GI50 (MCF7 breast cancer cells; [7]): 13.8 µM | GI50 [1, 8]: 2.5 µM | SI (vs NIH-3T3) Scaber Blue ([1]; blue light 458 nm): 24.7 | SI (vs MC3T3) Scaber Dark ([1]; dark): 3.9 | Photosensitizing index (PI) Scaber [1]: 5.6 | GI50 [1, 9]: 14.1 µM | GI50 (Hela cervix cancer cells; [10]): 10.8 µM | SI (vs MC3T3) HeLa Dark (Hela cervix cancer cells; dark): 1.2 | Photosensitizing index (PI) HeLa (Hela cervix cancer cells): 4.1 | GI50 (Hela cervix cancer cells; [11]): 44.3 µM | selectivity for cancer cells over non-tumor cells, in words [2]: most selective effects under irradiated conditions | PI values, mean over cancer cells [2]: 7.5 fold | PI values, median over cancer cells [2]: 6.0 fold | GI50 (A549 lung cancer cells; [12]): 1.5 µM | SI (vs NIH-3T3) A549 Blue (A549 lung cancer cells): 41.1 | SI (vs MC3T3) A549 Dark (A549 lung cancer cells; dark): 6.1 | SI (vs NIH-3T3) A549 Dark (A549 lung cancer cells; dark): 12.1 | Photosensitizing index (PI) A549 (A549 lung cancer cells): 6.1 | GI50 (A549 lung cancer cells; [13]): 9.1 µM | GI50 (T24 bladder cancer cells; [14]): 1.1 µM | SI (vs NIH-3T3) T24 Blue (T24 bladder cancer cells; blue light 458 nm): 58.1 | Photosensitizing index (PI) T24 (T24 bladder cancer cells): 16.9 | GI50 (T24 bladder cancer cells; [15]): 18.6 µM

F[P-](F)(F)(F)(F)F.O=C(O)CC[C@H](NC(=O)N[C@@H](CCCCNC(=O)CCn1cc[n+]2[c]1[Ir-3]13([c]4cccc5ccc6ccc[n+]1c6c45)([c]1cccc4ccc5ccc[n+]3c5c14)[n+]1ccccc1-2)C(=O)O)C(=O)O [III-i]
GI50 [3, 16]: 1.96 µM | Photosensitizing index (PI) [3]: 6.4 | GI50 ([3]; 22Rv1, dark, read-out: GI50): 12.5 µM | GI50 [3, 17]: 2 µM | SI (vs MC3T3) 22Rv1 Blue ([3]; blue light 458 nm): 20.7 | SI (vs MC3T3) 22Rv1 Dark ([3]; dark): 20.0 | SI (vs NIH-3T3) 22Rv1 Dark ([3]; dark): >8 | GI50 [3, 18]: 12.5 µM | GI50 ([4]; 8 h in the dark, blue light 458 nm 10 min, then dark up to 72 h, read-out: GI50 PC-3 Blue): 8.7 µM | GI50 [4, 19]: 8.72 µM | Photosensitizing index (PI) [4]: 6.6 | GI50 ([4]; PC3, dark, read-out: GI50): 57.2 µM | SI (vs MC3T3) PC-3 Blue [4]: 4.7 | SI (vs MC3T3) PC-3 Dark [4]: 4.4 | SI (vs NIH-3T3) PC-3 Dark [4]: >1.7 | GI50 [4, 20]: 57.2 µM | GI50 [5, 21]: 2.7 µM | GI50 [5, 22]: 2.69 µM | Photosensitizing index (PI) ([5]; C4-2b): 5.5 | GI50 ([5]; C4-2b, dark, read-out: GI50): 14.8 µM | SI (vs NIH-3T3) C4-2b Blue ([5]; blue light 458 nm): 20.7 | SI (vs NIH-3T3) C4-2b Dark ([5]; dark): >6.7 | GI50 [5, 23]: 14.8 µM

F[P-](F)(F)(F)(F)F.O=C(O)CC[C@H](NC(=O)N[C@@H](CCCCNC(=O)CCn1cc[n+]2[c]1[Ir-3]13([c]4c(sc5ccccc45)-c4cccc[n+]41)([c]1c(sc4ccccc14)-c1cccc[n+]13)[n+]1ccccc1-2)C(=O)O)C(=O)O [III-j]
GI50 [3, 16]: 0.28 µM | Photosensitizing index (PI) [3]: 35.4 | GI50 ([3]; 22Rv1, dark, read-out: GI50): 9.9 µM | GI50 [3, 17]: 0.28 µM | SI (vs MC3T3) 22Rv1 Blue ([3]; blue light 458 nm): 44.0 | SI (vs NIH-3T3) 22Rv1 Blue ([3]; blue light 458 nm): 38.0 | SI (vs NIH-3T3) 22Rv1 Dark ([3]; dark): >10.1 | GI50 [3, 18]: 9.9 µM | GI50 [4, 19]: 1.94 µM | Photosensitizing index (PI) [4]: 30.0 | GI50 ([4]; PC3, dark, read-out: GI50): 58.2 µM | SI (vs MC3T3) PC-3 Blue [4]: 6.6 | SI (vs MC3T3) PC-3 Dark [4]: >4.3 | SI (vs NIH-3T3) PC-3 Dark [4]: >1.7 | GI50 [4, 20]: 58.2 µM | GI50 [5, 21]: 0.52 µM | GI50 [5, 22]: 0.52 µM | Photosensitizing index (PI) ([5]; C4-2b): 21.7 | GI50 ([5]; C4-2b, dark, read-out: GI50): 11.3 µM | SI (vs MC3T3) C4-2b Blue ([5]; blue light 458 nm): 24.0 | SI (vs NIH-3T3) C4-2b Blue ([5]; blue light 458 nm): 20.7 | SI (vs MC3T3) C4-2b Dark ([5]; dark): >22.1 | SI (vs NIH-3T3) C4-2b Dark ([5]; dark): >8.8 | GI50 [5, 23]: 11.3 µM
